In publication PMC10281575, “PfCRT mutations conferring piperaquine resistance in falciparum malaria shape the kinetics of quinoline drug binding and transport” (PLOS Pathogens, 2023):
“And” between values parts separate entries of the source, which are not always exact repeats. Equal entries are not always repeated. Where two headings read alike, the source gives them in different places.

Target: T1, PfCRT^Dd2 (Plasmodium falciparum, UniProt Q8IBZ9, A220S/I356T/K76T/M74I/N326S/N75E/Q271E/R371I)
T1 sequence (Q8IBZ9 1-424 M74I/N75E/K76T/A220S/Q271E/N326S/I356T/R371I): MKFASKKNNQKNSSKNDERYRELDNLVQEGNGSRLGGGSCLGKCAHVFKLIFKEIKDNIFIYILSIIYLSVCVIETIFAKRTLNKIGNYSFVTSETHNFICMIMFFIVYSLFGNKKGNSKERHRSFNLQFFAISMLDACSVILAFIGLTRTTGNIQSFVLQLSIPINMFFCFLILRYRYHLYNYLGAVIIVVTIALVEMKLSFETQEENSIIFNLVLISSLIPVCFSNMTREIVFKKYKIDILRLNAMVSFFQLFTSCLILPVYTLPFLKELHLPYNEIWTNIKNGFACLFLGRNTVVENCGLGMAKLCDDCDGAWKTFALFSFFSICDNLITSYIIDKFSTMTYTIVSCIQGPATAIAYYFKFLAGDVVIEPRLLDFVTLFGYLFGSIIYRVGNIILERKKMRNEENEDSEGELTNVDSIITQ
Experiment: Competition kinetics of drug transport (radiolabeled substrate plus cold inhibitor), PfCRT^Dd2-expressing oocytes
Format: cell-based
Design: expressed in transfected cells; host or cells: Xenopus laevis oocytes injected with in vitro transcribed RNA (pSP64T)
Conditions: for PfCRTDd2-mediated PPQ transport 500 µM PPQ: single replicates; for Vmax, maximal velocity of drug transport: global fit; for β, partiality factor: factor on transport of the labeled drug by the other drug
Procedure: The experimental procedure and the data analysis were as described above.
The difference between the two models lies in the value of α, a parameter describing how much the affinity for the substrate changes when the inhibitor is already bound, and vice versa. […] The resulting Vmax,app values and the Vmax,app/KM,app ratios were plotted as a function of the inhibitor concentration (Fig 5A).
Drug transport assays were performed as previously described. Briefly, measurements of radiolabeled drug uptake were made over 1 h, unless otherwise specified. […] Where specified, one or more unlabeled drugs were also present at the indicated concentrations. […] The uptake assays were terminated by removing the oocytes from the reaction medium and washing them three times with 2 mL of ice-cold ND96 buffer. Each oocyte was transferred to a separate scintillation vial and lysed by the addition of 200 μL of a 5% SDS solution. The radioactivity in the sample was measured using a liquid scintillation analyser Tri-Carb 4910 TR (PerkinElmer). Water-injected oocytes were analyzed in parallel as a negative control. The buffer from each condition was measured in duplicate in parallel to each experiment to transform counts per minute into pmol of drug. Drug uptake attributable to PfCRT was determined by subtracting the background uptake from water-injected oocytes from that of PfCRT-expressing oocytes. In all cases, at least three independent experiments were performed on oocytes from different frogs, and for each condition in an experiment, measurements were made from 10 oocytes per treatment.
The following equations were adopted from Segel (1993), and the reader is referred to that text for the assumptions made in the author’s approach in the derivation of each equation [31]. The concentration of substrate is denoted as [S1] and the concentration of the inhibiting substrate is denoted as [S2]. KS1 and KS2 are the dissociation constants for the respective substrate-protein complexes.
Analyses of the kinetic data were performed using SigmaPlot version 13.0 and Python. The drug competition models were globally fit to the kinetic data using the least-squares method and ranked according to their corrected Akaike information criterion difference (ΔAICC) and their Akaike weight, using Python. The two top-ranked models were compared using an F-test.
This factor reflects how much the affinity of the transporter for one drug changes when the other drug is already bound in the protein cavity. In the former model, α > 0 and α ≠ 1. In the latter model, it could be thought of as if α = 1. Because of this, discriminating between the two models also means determining the value of α. In Mixed-type (Partial) inhibition, the apparent maximal velocity (Vmax,app) is given by Eq 22, Vmax,app=Vmax(1+β[S2]/αKS2)/(1+[S2]/αKS2) (Eq 22)
Vmax,app is the maximal rate of substrate transport at a certain inhibitor concentration. The half-maximal inhibitory concentration is given by the term in the denominator different from [S2], which in this case is αKS2. This means that by plotting Vmax,app as a function of [S2], the value of αKS2 can be derived after fitting the curve to Eq 23.
The half-maximal inhibitory concentration derived from this hyperbolic equation is equal to KS2. By plotting Vmax,app/KM,app as a function of [S2], one can derive KS2 after fitting the curve to Eq 25. The value of α can then be calculated dividing αKS2 by KS2.

## Clc1ccc2c(N3CCN(CCCN4CCN(c5ccnc6cc(Cl)ccc56)CC4)CC3)ccnc2c1 [PPQ, piperaquine]
50 µM CQ
  PfCRTDd2-mediated PPQ transport 500 µM PPQ: 89.07 pmol oocyte-1 h-1 and 87.88 pmol oocyte-1 h-1 and 107.53 pmol oocyte-1 h-1
125 µM CQ
  PfCRTDd2-mediated PPQ transport 500 µM PPQ: 90.95 pmol oocyte-1 h-1 and 93.39 pmol oocyte-1 h-1 and 84.66 pmol oocyte-1 h-1
200 µM CQ
  PfCRTDd2-mediated PPQ transport 500 µM PPQ: 77.82 pmol oocyte-1 h-1 and 87.40 pmol oocyte-1 h-1 and 96.04 pmol oocyte-1 h-1
400 µM CQ
  PfCRTDd2-mediated PPQ transport 500 µM PPQ: 65.21 pmol oocyte-1 h-1 and 77.83 pmol oocyte-1 h-1 and 82.19 pmol oocyte-1 h-1
1/[PPQ] 0.002000 µM-1
  v / (Vmax - v): 0.5629
1/[PPQ] 0.002857 µM-1
  v / (Vmax - v): 0.5805
1/[PPQ] 0.005000 µM-1
  v / (Vmax - v): 0.7051
1/[PPQ] 0.008000 µM-1
  v / (Vmax - v): 0.9675
1/[PPQ] 0.020000 µM-1
  v / (Vmax - v): 1.1790
16 models, ΔAICC, Akaike weight, F-test, label = cold inhibitor of the other drug's transport
  most plausible inhibition model: partial noncompetitive inhibition
Mixed (Partial) model, drug as radiolabeled substrate
  Vmax, maximal velocity of drug transport: 130 ± 3 pmol oocyte^-1 h^-1
Mixed (Partial) model, drug as cold inhibitor, read-out: KS, dissociation constant for the PfCRT-substrate complex
  Kd: 210 ± 50 µM
Mixed (Partial) model, drug as radiolabeled substrate, read-out: KS, dissociation constant for the PfCRT-substrate complex
  Kd: 125 ± 9 µM
Mixed (Partial) model
  β, partiality factor: 0.63 ± 0.08
Mixed (Partial) model, label = radiolabeled substrate, other drug cold inhibitor
  α, KS interaction factor: 1.2 ± 0.3
Noncompetitive (Partial) model, drug as radiolabeled substrate, other drug as cold inhibitor
  Vmax, maximal velocity of drug transport: 131 pmol oocyte^-1 h^-1 and 131 ± 2 pmol oocyte^-1 h^-1
Noncompetitive (Partial) model, drug as cold inhibitor, read-out: KS, dissociation constant for the PfCRT-substrate complex
  Kd: 201 µM and 200 µM
Noncompetitive (Partial) model, drug as radiolabeled substrate, read-out: KS, dissociation constant for the PfCRT-substrate complex
  Kd: 130 ± 6 µM
Noncompetitive (Partial) model
  β, partiality factor: 0.60 and 0.60 ± 0.06
[CQ] 0 µM
  KMapp ([3H]PPQ + CQ): 122.92 µM
  Vmaxapp ([3H]PPQ + CQ): 130.71 pmol oocyte-1 h-1
  Vmaxapp/KMapp ([3H]PPQ + CQ): 1.0634 h⁻¹
[CQ] 25 µM
  KMapp ([3H]PPQ + CQ): 130.31 µM
  Vmaxapp ([3H]PPQ + CQ): 125.79 pmol oocyte-1 h-1
  Vmaxapp/KMapp ([3H]PPQ + CQ): 0.9653 h⁻¹
[CQ] 50 µM
  KMapp ([3H]PPQ + CQ): 129.68 µM
  Vmaxapp ([3H]PPQ + CQ): 119.39 pmol oocyte-1 h-1
  Vmaxapp/KMapp ([3H]PPQ + CQ): 0.9206 h⁻¹
[CQ] 125 µM
  KMapp ([3H]PPQ + CQ): 128.38 µM
  Vmaxapp ([3H]PPQ + CQ): 113.74 pmol oocyte-1 h-1
  Vmaxapp/KMapp ([3H]PPQ + CQ): 0.8860 h⁻¹
[CQ] 200 µM
  KMapp ([3H]PPQ + CQ): 133.02 µM
  Vmaxapp ([3H]PPQ + CQ): 109.91 pmol oocyte-1 h-1
  Vmaxapp/KMapp ([3H]PPQ + CQ): 0.8262 h⁻¹
[CQ] 400 µM
  KMapp ([3H]PPQ + CQ): 140.80 µM
  Vmaxapp ([3H]PPQ + CQ): 99.57 pmol oocyte-1 h-1
  Vmaxapp/KMapp ([3H]PPQ + CQ): 0.7072 h⁻¹
Secondary plot, half-maximum inhibitory concentration of Vmax,app versus inhibitor concentration, read-out: αKS, dissociation constant between the drug and the PfCRT complex with the other drug
  Kd: 205 ± 50 µM
Secondary plots, label = prebound drug
  α (αKS divided by KS): 0.9 ± 0.7
